Calls of active or inactive are those of the source.
How the values were obtained:
[1] = target: T1, Cytochrome P450 1A2 (Homo sapiens, UniProt P05177);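 also: PubChem cytochrome P450 panel assay, CYP1A2 panel member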
T1 sequence (P05177 whole entry): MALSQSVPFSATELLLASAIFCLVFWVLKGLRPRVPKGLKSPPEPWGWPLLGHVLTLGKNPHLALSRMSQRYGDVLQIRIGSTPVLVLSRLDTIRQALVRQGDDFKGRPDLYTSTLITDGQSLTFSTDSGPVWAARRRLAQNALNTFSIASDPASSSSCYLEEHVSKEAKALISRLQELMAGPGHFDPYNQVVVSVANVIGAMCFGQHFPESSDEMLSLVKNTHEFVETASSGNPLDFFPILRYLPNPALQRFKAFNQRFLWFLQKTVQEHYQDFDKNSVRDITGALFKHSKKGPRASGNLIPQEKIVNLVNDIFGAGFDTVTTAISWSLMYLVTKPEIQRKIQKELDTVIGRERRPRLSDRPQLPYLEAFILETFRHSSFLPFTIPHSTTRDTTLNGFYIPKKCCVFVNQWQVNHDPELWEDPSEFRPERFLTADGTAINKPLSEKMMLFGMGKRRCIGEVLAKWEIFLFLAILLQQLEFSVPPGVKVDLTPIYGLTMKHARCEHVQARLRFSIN

[2] = target: Cytochrome P450 2C9 (Homo sapiens, UniProt P11712)
[3] = target: Cytochrome P450 3A4 (Homo sapiens, UniProt P08684); details: Potency;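 also: confirmatory qHTS run detecting inhibitors and substrates of CYP3A4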
[4] = system: BJ; assay: cells; format: functional, cell-based; details: Homo sapiens
[5] = system: BJ; assay: BJ-TERT-LT-ST fibroblast viability loss – cell-based, RAS-independent, luminescence, dose response (AID 1935); format: functional; details: Homo sapiens;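 also: BJ fibroblasts immortalized with TERT plus LT and ST oncogenes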
[6] = DRD fibroblast viability loss – cell-based, non-viral oncogenic, luminescence, dose response (AID 1934); format: functional; details: Homo sapiens
[7] = system: BJ; assay: BJ-TERT fibroblast viability loss – cell-based, RAS-independent, luminescence, dose response (AID 1933); format: functional; details: Homo sapiens
[8] = target: Glyceraldehyde-3-phosphate dehydrogenase (Homo sapiens, UniProt P04406)
[9] = target: Cytochrome P450 2C19 (Homo sapiens, UniProt P33261); assay: Cytochrome panel assay with activity outcomes. Panel member name: p450-cyp2c19 Compounds with AC50 equal or less than 10 uM are considered active; format: functional; details: read-out: AC50
[10] = target: T2, Leucine aminopeptidase (Plasmodium falciparum 3D7, UniProt Q8IL11); assay: P. falciparum M17LAP inhibitors, primary screen, biochemical, fluorogenic H-Leu-NHMec substrate, 1536-well (AID 1619); format: functional
T2 sequence (Q8IL11 whole entry): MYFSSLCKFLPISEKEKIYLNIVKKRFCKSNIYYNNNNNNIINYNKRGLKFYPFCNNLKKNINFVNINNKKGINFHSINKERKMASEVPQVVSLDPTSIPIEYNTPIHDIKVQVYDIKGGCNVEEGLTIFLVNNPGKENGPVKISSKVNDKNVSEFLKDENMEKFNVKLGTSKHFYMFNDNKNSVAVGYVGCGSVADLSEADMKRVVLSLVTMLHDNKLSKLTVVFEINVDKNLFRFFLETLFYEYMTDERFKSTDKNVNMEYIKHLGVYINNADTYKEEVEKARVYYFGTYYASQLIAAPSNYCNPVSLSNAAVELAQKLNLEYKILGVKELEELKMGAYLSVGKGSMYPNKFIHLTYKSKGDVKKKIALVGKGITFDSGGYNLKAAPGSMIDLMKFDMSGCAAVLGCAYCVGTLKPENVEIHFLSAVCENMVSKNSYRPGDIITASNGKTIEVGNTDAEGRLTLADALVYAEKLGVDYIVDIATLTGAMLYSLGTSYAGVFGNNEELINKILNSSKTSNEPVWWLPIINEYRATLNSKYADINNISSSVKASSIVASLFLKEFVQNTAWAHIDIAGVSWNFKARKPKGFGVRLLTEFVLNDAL

[11] = system: H4; assay: Luminescence Cell-Based Dose Response HTS to Identify Activators of 5'UTR Stem-Loop Driven Prion Protein mRNA Translation in H4 Neuroglioblastoma Cells. [Related pubchem assays: 1829 (Project Summary), 1814 (Primary HTS)]; format: functional; details: Homo sapiens
[12] = Luminescence Cell-Based Dose Confirmation HTS to Identify Activators of 5'UTR Stem-Loop Driven Alpha-Synuclein mRNA Translation in H4 Neuroglioblastoma Cells. [Related pubchem assays: 1829 (Project Summary), 1814 (Primary HTS)]; format: functional
[13] = Luminescence Cell-Based Dose Response HTS to Identify Activators of Luciferase Translation or Activity in H4 […] Cells. [Related pubchem assays: 1829 (Project Summary), 1814 (Primary HTS)]; format: functional

Chain of Cytochrome P450 2C9 (P11712 whole entry): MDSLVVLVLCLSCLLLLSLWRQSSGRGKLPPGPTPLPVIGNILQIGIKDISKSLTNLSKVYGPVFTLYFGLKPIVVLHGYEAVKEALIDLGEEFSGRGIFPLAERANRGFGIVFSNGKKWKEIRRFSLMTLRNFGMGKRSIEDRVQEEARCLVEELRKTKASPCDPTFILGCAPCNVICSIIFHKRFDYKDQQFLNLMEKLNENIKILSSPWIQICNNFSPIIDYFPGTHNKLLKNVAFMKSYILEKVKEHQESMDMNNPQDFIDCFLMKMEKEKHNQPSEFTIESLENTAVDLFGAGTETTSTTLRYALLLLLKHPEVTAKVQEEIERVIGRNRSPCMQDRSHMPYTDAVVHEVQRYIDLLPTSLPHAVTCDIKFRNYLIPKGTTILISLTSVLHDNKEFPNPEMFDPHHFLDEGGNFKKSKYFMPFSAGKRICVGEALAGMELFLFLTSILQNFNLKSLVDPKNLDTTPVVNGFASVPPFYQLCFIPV
Chain of Cytochrome P450 3A4 (P08684 whole entry): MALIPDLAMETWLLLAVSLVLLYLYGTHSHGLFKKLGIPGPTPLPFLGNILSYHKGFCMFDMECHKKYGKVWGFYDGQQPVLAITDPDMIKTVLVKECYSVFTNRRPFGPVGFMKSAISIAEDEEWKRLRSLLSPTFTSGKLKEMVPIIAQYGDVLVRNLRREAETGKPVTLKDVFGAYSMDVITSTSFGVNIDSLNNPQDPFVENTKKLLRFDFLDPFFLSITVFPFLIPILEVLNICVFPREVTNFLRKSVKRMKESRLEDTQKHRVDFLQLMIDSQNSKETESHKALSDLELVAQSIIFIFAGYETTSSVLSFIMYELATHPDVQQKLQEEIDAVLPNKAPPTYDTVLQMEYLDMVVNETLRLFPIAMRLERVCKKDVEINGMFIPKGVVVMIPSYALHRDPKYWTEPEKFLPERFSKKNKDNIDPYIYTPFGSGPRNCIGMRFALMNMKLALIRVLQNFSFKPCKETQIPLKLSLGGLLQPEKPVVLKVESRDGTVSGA
Chain of Glyceraldehyde-3-phosphate dehydrogenase (P04406 whole entry): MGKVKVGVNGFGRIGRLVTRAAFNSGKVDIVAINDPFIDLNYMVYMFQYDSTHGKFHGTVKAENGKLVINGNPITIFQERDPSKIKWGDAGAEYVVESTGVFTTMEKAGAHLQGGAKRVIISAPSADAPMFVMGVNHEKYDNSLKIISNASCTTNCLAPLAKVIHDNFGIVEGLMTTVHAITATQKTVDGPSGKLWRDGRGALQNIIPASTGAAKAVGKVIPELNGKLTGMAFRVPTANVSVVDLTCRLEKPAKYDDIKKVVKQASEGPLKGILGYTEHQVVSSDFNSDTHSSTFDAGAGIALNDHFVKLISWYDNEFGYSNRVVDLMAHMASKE
Chain of Cytochrome P450 2C19 (P33261 whole entry): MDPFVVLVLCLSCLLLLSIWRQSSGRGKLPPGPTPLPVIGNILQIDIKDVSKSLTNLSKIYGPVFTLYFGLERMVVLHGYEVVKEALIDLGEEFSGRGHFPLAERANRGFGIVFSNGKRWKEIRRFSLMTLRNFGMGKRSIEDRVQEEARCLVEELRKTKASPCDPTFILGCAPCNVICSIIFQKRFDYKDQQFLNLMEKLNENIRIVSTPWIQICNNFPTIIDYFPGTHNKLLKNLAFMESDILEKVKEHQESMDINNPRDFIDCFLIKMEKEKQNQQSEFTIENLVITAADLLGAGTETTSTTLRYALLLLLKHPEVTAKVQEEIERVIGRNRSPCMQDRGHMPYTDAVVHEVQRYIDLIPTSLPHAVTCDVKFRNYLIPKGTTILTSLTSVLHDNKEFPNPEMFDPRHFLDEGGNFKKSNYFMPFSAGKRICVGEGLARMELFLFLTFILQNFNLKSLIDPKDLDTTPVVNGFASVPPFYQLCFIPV

CCn1c(SCC(=O)c2ccc(OC)cc2)nnc1C1CC1
AC50 [1]: 17.8 µM (inconclusive) | AC50 [2]: inconclusive

CC1(C)C(O)CC(=O)[C@]2(C)C1CC(=O)[C@]1(C)C2CC[C@@]2(C)C(c3ccoc3)OC(=O)C3O[C@@]321 (stereo partly specified)
AC50 [3]: 10 µM (inconclusive)

N#CCCn1c(=O)c(-c2ccc(Cl)cc2)nc2cnc(Oc3cccc(Cl)c3)nc21
AC50 [2]: inconclusive

Cc1ccc(Nc2nc(-c3cccnc3)nc3ccccc23)cc1
EC50 [4]: 20.3 µM (active) | EC50 [5]: > 150 µM (inconclusive) | EC50 [6]: 15.8 µM (active) | EC50 [7]: 28.5 µM (active)

CCCn1c(C)nc2c(NCCN3CCOCC3)nc(C)nc21
AC50 [3]: 20 µM (inconclusive)

CN1CCN(C2=C(Cl)C(=O)N(c3cccc(C(F)(F)F)c3)C2=O)CC1
IC50 [8]: > 50 µM (inconclusive)

Cc1nc(NC(=O)c2ccccc2)sc1-c1csc(Nc2ccc(F)cc2)n1
AC50 [1]: 4.47 µM (inconclusive) | AC50 [9]: 0.355 µM (inconclusive) | AC50 [2]: inconclusive

CC1(C)OC2CC3C4CC(F)C5=CC(=O)C=CC5(C)C4C(O)CC3(C)[C@]2(C(=O)CO)O1 (stereo partly specified)
AC50 [3]: 39.8 µM (inconclusive)

CCC(=O)OC1CCC2C3CCc4cc(O)ccc4C3CC[C@]12C (stereo partly specified)
AC50 [3]: 39.8 µM (inconclusive)

CCNc1ncc2nc(-c3ccc(OC)cc3)c(=O)n(Cc3ccc(F)cc3)c2n1
AC50 [2]: inconclusive

COc1cccc(Cn2c(=O)c(-c3cc(F)cc(F)c3)nc3cnc(N4CCOCC4)nc32)c1
AC50 [2]: inconclusive

CCSc1nnc(NC(=O)C2(C)Cc3ccccc3C(=O)O2)s1 (stereo unspecified)
IC50 [10]: 33.6 µM (active)

COC(=O)/C(=C1\OC(=O)C(c2ccccc2)C1=O)c1ccccc1 (stereo unspecified)
AC50 [3]: 39.8 µM (inconclusive)

CCCCOc1ccc(C2CCC(C(C)=O)C(C)C2)cc1 (stereo unspecified)
EC50 [11]: 41.5 µM (active) | EC50 [12]: 0.284 µM (active) | EC50 [13]: 26.8 µM (active)

CCOC(=O)c1ccc(NC(=O)CN2C(=O)CSCC2=O)cc1
IC50 [10]: 41.8 µM (active)

Cn1c(-c2ccc3ccccc3n2)[n+](C)c2ccccc21
EC50 [11]: 40 µM (active) | EC50 [12]: > 120 µM (not active) | EC50 [13]: 12.7 µM (active)
